# Laboratory results taken from patent US20050256134A1, “Use of creatine analogues and creatine kinase modulators for the prevention and treatment of glucose metabolic disorders” (AVICENA GROUP, INC., priority 1995, published 2005).
# Test system: terminal cancer patients
# Experiment: Phase I/II open label dose escalation study, glucose levels, 3 hour continuous infusion
# Assay type: in vivo, human
# Description: Cyclocreatine was tested in humans in a phase I/II open label dose escalation study. […] Cyclocreatine was administered at doses that ranged from 10 mg/Kg to 100 mg/Kg. The schedule of administration of cyclocreatine is described in Table 4.
# Cohorts of 3 patients were administered drug at each dose level, via a 3 hour continuous infusion in one liter volume of saline. The first week patients received cyclocreatine once, the second week patients received cyclocreatine twice, the third week three times, the fourth week four times, the fifth week five times. On weeks six and seven, no drug was administered to allow the drug to wash out. On week eight, cyclocreatine was given five times. The study included a total of 23 patients (18 male, 5 female) with a median age of 71 years (range 54-85). The patients had different types of malignancies. Eligibility requirements included patients who have failed standard therapy or for whom no therapy was available, normal organ function, have recovered from prior therapies, probability of survival of greater than three months. Reasons for exclusion included: major surgery, life threatening concurrent illness and CNS metastasis. Blood samples were collected at baseline and 1 day before and after the last weekly drug administration on days 1, 7, 9, 14, 17, 21, 25, 28, 33, 40, 47, 49, 54, 61, and 69. Glucose levels were determined for these collected blood samples. […] Not all patients experienced a significant drop in glucose although the trend was there. FIGS. 14 and 15 illustrate graphically individual patients' glucose levels upon treatment with 60 mg/Kg or 80 mg/Kg cyclocreatine. Patient (A) at the 80 mg/Kg dose was diabetic and had many serious complications due to their disease. […] It should be noted that an insufficient number of readings was made shortly after drug administration. It is interesting to note that several patients who were diabetic or had higher glucose levels than normal did respond to cyclocreatine, onen example being illustrated in FIG. 16.
smiles,measurement,setting,value
NC1=NCCN1CC(=O)O [cyclocreatine],patients with significant hypoglycemia,80 mg/Kg,2 out of 3
same,patients with significant hypoglycemia,100 mg/Kg,2 out of 7
same,Glucose,"Ave, 40 mg/Kg, Study Day 0",125 mg/dL
same,Glucose,"Ave, 40 mg/Kg, Study Day 1",105 mg/dL
same,Glucose,"Ave, 40 mg/Kg, Study Day 7",119 mg/dL
same,Glucose,"Ave, 40 mg/Kg, Study Day 9",125 mg/dL
same,Glucose,"Ave, 40 mg/Kg, Study Day 14",129 mg/dL
same,Glucose,"Ave, 40 mg/Kg, Study Day 17",139 mg/dL
same,Glucose,"Ave, 40 mg/Kg, Study Day 21",112 mg/dL
same,Glucose,"Ave, 40 mg/Kg, Study Day 25",161 mg/dL
same,Glucose,"Ave, 40 mg/Kg, Study Day 28",122 mg/dL
same,Glucose,"Ave, 40 mg/Kg, Study Day 33",149 mg/dL
same,Glucose,"Ave, 40 mg/Kg, Study Day 40",104 mg/dL
same,Glucose,"Ave, 40 mg/Kg, Study Day 47",99 mg/dL
same,Glucose,"Ave, 40 mg/Kg, Study Day 49",128 mg/dL
same,Glucose,"Ave, 40 mg/Kg, Study Day 54",132 mg/dL
same,Glucose,"Ave, 40 mg/Kg, Study Day 61",105 mg/dL
same,Glucose,"Ave, 40 mg/Kg, Study Day 69",119 mg/dL
same,Glucose,"Ave, 60 mg/Kg, Study Day 7",37 mg/dL
same,Glucose,"Patient 2, 7, 40 mg/Kg, Study Day 0",115 mg/dL
same,Glucose,"Patient 2, 7, 40 mg/Kg, Study Day 1",95 mg/dL
same,Glucose,"Patient 2, 7, 40 mg/Kg, Study Day 7",153 mg/dL
same,Glucose,"Patient 2, 7, 40 mg/Kg, Study Day 9",123 mg/dL
same,Glucose,"Patient 2, 7, 40 mg/Kg, Study Day 14",102 mg/dL
same,Glucose,"Patient 2, 7, 40 mg/Kg, Study Day 17",117 mg/dL
same,Glucose,"Patient 2, 7, 40 mg/Kg, Study Day 21",104 mg/dL
same,Glucose,"Patient 2, 7, 40 mg/Kg, Study Day 25",122 mg/dL
same,Glucose,"Patient 2, 7, 40 mg/Kg, Study Day 28",154 mg/dL
same,Glucose,"Patient 2, 8, 40 mg/Kg, Study Day 0",222 mg/dL
same,Glucose,"Patient 2, 8, 40 mg/Kg, Study Day 1",116 mg/dL
same,Glucose,"Patient 2, 8, 40 mg/Kg, Study Day 9",148 mg/dL
same,Glucose,"Patient 2, 8, 40 mg/Kg, Study Day 14",184 mg/dL
same,Glucose,"Patient 2, 8, 40 mg/Kg, Study Day 17",251 mg/dL
same,Glucose,"Patient 2, 8, 40 mg/Kg, Study Day 25",278 mg/dL
same,Glucose,"Patient 2, 8, 40 mg/Kg, Study Day 33",244 mg/dL
same,Glucose,"Patient 2, 8, 40 mg/Kg, Study Day 40",139 mg/dL
same,Glucose,"Patient 2, 8, 40 mg/Kg, Study Day 49",129 mg/dL
same,Glucose,"Patient 2, 8, 40 mg/Kg, Study Day 54",195 mg/dL
same,Glucose,"Patient 2, 8, 40 mg/Kg, Study Day 69",205 mg/dL
same,Glucose,"Patient 2, 9, 40 mg/Kg, Study Day 0",98 mg/dL
same,Glucose,"Patient 2, 9, 40 mg/Kg, Study Day 1",87 mg/dL
same,Glucose,"Patient 2, 9, 40 mg/Kg, Study Day 7",117 mg/dL
same,Glucose,"Patient 2, 9, 40 mg/Kg, Study Day 9",148 mg/dL
same,Glucose,"Patient 2, 9, 40 mg/Kg, Study Day 14",126 mg/dL
same,Glucose,"Patient 2, 9, 40 mg/Kg, Study Day 17",139 mg/dL
same,Glucose,"Patient 2, 9, 40 mg/Kg, Study Day 21",90 mg/dL
same,Glucose,"Patient 2, 9, 40 mg/Kg, Study Day 25",114 mg/dL
same,Glucose,"Patient 2, 9, 40 mg/Kg, Study Day 28",87 mg/dL
same,Glucose,"Patient 2, 9, 40 mg/Kg, Study Day 33",121 mg/dL
same,Glucose,"Patient 2, 9, 40 mg/Kg, Study Day 40",92 mg/dL
same,Glucose,"Patient 2, 9, 40 mg/Kg, Study Day 47",105 mg/dL
same,Glucose,"Patient 2, 9, 40 mg/Kg, Study Day 49",132 mg/dL
same,Glucose,"Patient 2, 9, 40 mg/Kg, Study Day 54",105 mg/dL
same,Glucose,"Patient 2, 9, 40 mg/Kg, Study Day 61",104 mg/dL
same,Glucose,"Patient 2, 9, 40 mg/Kg, Study Day 69",92 mg/dL
same,Glucose,"Patient 8, 40 mg/Kg, Study Day 0",94 mg/dL
same,Glucose,"Patient 8, 40 mg/Kg, Study Day 1",114 mg/dL
same,Glucose,"Patient 8, 40 mg/Kg, Study Day 7",96 mg/dL
same,Glucose,"Patient 8, 40 mg/Kg, Study Day 9",115 mg/dL
same,Glucose,"Patient 8, 40 mg/Kg, Study Day 14",87 mg/dL
same,Glucose,"Patient 8, 40 mg/Kg, Study Day 17",91 mg/dL
same,Glucose,"Patient 8, 40 mg/Kg, Study Day 21",103 mg/dL
same,Glucose,"Patient 8, 40 mg/Kg, Study Day 25",96 mg/dL
same,Glucose,"Patient 8, 40 mg/Kg, Study Day 28",125 mg/dL
same,Glucose,"Patient 8, 40 mg/Kg, Study Day 33",122 mg/dL
same,Glucose,"Patient 8, 40 mg/Kg, Study Day 40",67 mg/dL
same,Glucose,"Patient 8, 40 mg/Kg, Study Day 47",116 mg/dL
same,Glucose,"Patient 8, 40 mg/Kg, Study Day 49",122 mg/dL
same,Glucose,"Patient 8, 40 mg/Kg, Study Day 54",136 mg/dL
same,Glucose,"Patient 8, 40 mg/Kg, Study Day 61",102 mg/dL
same,Glucose,"Patient 8, 40 mg/Kg, Study Day 69",135 mg/dL
same,Glucose,"Patient 9, 40 mg/Kg, Study Day 0",118 mg/dL
same,Glucose,"Patient 9, 40 mg/Kg, Study Day 1",114 mg/dL
same,Glucose,"Patient 9, 40 mg/Kg, Study Day 7",73 mg/dL
same,Glucose,"Patient 9, 40 mg/Kg, Study Day 9",130 mg/dL
same,Glucose,"Patient 9, 40 mg/Kg, Study Day 14",151 mg/dL
same,Glucose,"Patient 9, 40 mg/Kg, Study Day 17",145 mg/dL
same,Glucose,"Patient 9, 40 mg/Kg, Study Day 21",156 mg/dL
same,Glucose,"Patient 9, 40 mg/Kg, Study Day 25",210 mg/dL
same,Glucose,"Patient 9, 40 mg/Kg, Study Day 28",151 mg/dL
same,Glucose,"Patient 9, 40 mg/Kg, Study Day 33",109 mg/dL
same,Glucose,"Patient 9, 40 mg/Kg, Study Day 40",128 mg/dL
same,Glucose,"Patient 9, 40 mg/Kg, Study Day 47",75 mg/dL
same,Glucose,"Patient 9, 40 mg/Kg, Study Day 54",145 mg/dL
same,Glucose,"Patient 9, 40 mg/Kg, Study Day 61",121 mg/dL
same,Glucose,"Patient 9, 40 mg/Kg, Study Day 69",89 mg/dL
same,Glucose,"Patient 10, 40 mg/Kg, Study Day 0",100 mg/dL
same,Glucose,"Patient 10, 40 mg/Kg, Study Day 7",156 mg/dL
same,Glucose,"Patient 10, 40 mg/Kg, Study Day 9",84 mg/dL
same,Glucose,"Patient 10, 40 mg/Kg, Study Day 14",123 mg/dL
same,Glucose,"Patient 10, 40 mg/Kg, Study Day 17",93 mg/dL
same,Glucose,"Patient 10, 40 mg/Kg, Study Day 21",106 mg/dL
same,Glucose,"Patient 10, 40 mg/Kg, Study Day 25",143 mg/dL
same,Glucose,"Patient 10, 40 mg/Kg, Study Day 28",91 mg/dL
same,Glucose,"Patient 10, 40 mg/Kg, Study Day 40",94 mg/dL
same,Glucose,"Patient 10, 40 mg/Kg, Study Day 47",100 mg/dL
same,Glucose,"Patient 10, 40 mg/Kg, Study Day 54",79 mg/dL
same,Glucose,"Patient 10, 40 mg/Kg, Study Day 61",92 mg/dL
same,Glucose,"Patient 10, 40 mg/Kg, Study Day 69",74 mg/dL
same,Glucose,"Patient 11, 60 mg/Kg, Study Day 7",141 mg/dL
same,Glucose,"Patient 12, 60 mg/Kg, Study Day 7",72 mg/dL
same,Glucose,"Patient 13, 60 mg/Kg, Study Day 7",48 mg/dL
same,glucose response,"Patient (A), diabetic, 80 mg/Kg",did not seem to respond well
same,clinical observation,highest tested drug concentrations (80 and 100 mg/Kg),became lethargic and hypoglycemic and required immediate intervention to revert glucose levels
same,Glucose Levels,lower tested drug concentrations,trend towards a drop in glucose levels shortly after drug administration
same,glucose response,several patients who were diabetic or had higher glucose levels than normal,did respond
